Each structure is given as a SMILES string.

The test system of one data set is P-gp (MDR1). The experiment in a line: MDCK-MDR1 assay (permeability / Pgp efflux). In kind it is in vitro ADME. To be noted: dog, Papp BA/Papp AB, Pgp substrate when ≥2. The method, then: The permeability of the test compounds was assessed in MDCK-MDR1 cells that were cultured to confluency (4-6 days) in a 96 transwell plate. Test compounds were diluted with the transport buffer (HBSS+1% BSA) to a concentration of 0.5 μM and applied to the apical or basolateral side of the cell monolayer. Permeation of the test compounds from A to B direction or B to A direction was determined in triplicate over a 60-minute incubation time at 37° C. and 5% CO2 with a relative humidity of 95%. Test compounds were quantified by LC-MS/MS analysis based on the peaks area ratios of analyte/IS in both the receiver and donor wells of the transwell plate.
The apparent permeability coefficient Papp (cm/s) was calculated using the equation: Papp=(dCr/dt)×Vr/(A×C0) Where dCr/dt is the cumulative concentration of compound in the receiver chamber as a function of time (μM/s); Vr is the solution volume in the receiver chamber (0.05 mL on the apical side; 0.25 mL on the basolateral side); A is the surface area for the transport, i.e. 0.0804 cm^2 for the area of the monolayer; C0 is the initial concentration in the donor chamber (μM).
Compounds are classified Pgp substrates when efflux ratio (Papp BA/Papp AB) is ≥2.

In a further data set the test system is Aβ40. The experiment in a line: Assessment of Aβ peptide levels in rat brain and plasma following BACE1 inhibition (Aβ40 ELISA). The data set is classed as in vivo. Conditions: 3 hours post dose, vs vehicle. On the procedure: Assessment of Aβ Peptide Levels in Rat Brain and Plasma Following BACE1 Inhibition. Animals.
Young adult Male Sprague Dawley rats of approximately 250 g weight were purchased from Charles River and received 0-30 mg/kg of vehicle (10% HP betaCD+1M MeSO4, pH 2.5) or test compounds (dissolved in vehicle) only by oral gavage (p.o). The compounds are dosed at a volume of […]. Cohorts of 5-10 animals were established for each treatment condition.
At T=180 minutes after initial dosing the animals were stunned and decapitated with a guillotine. Trunk-blood was sampled in EDTA coated tubes after decapitation of the animal. The blood was centrifuged at 2200 G at 4° C. for 15 minutes and the plasma was collected and frozen at −80° C. The blood was aliquoted for Aβ ELISA and DMPK analysis. Immediately following sacrifice, the brain was extracted and split into 2 halves. The right hemibrains were snap frozen on dry ice and stored at −80° C. The left half was dissected; with the front forebrain taken for Aβ ELISA and the remainder used for DMPK analysis. These samples were also snap frozen on dry ice and stored at −80° C. until use for analysis.
The cortex samples were thawed slightly on wet ice before they were homogenized with a small volume dispersing instrument (T10 basic ULTRA-TURRAX®) which was set at speed 5 for approximately 5-7 sec. The tissue was processed in a 10 times volume of the weight, for example 100 mg of tissue was homogenized in 1000 μL of Homogenization buffer. Homogenization buffer: 50 ml Milli Q water+[…]+0.2% Diethylamin (DEA)+1 tablet of Complete Protease inhibitor cocktail+1 nM 4-(2-aminoethyl)benzenesulfonyl fluoride hydrochloride irreversible serine protease inhibitor (AEBSF).
After homogenization 450 μL aliquots of the samples are collected into a 1.5 ml Eppendorf tube and placed on wet ice, 0.5% NP-40 (50 ul) was added to all samples and then they were incubated on ice for 30 min. After which all samples were sonicated using an Ultrasonic homogenizer with 20 kHz homogeneous sound (SONOPLUS HD2070, Bandelin Electronic) 10 pulse set at 12-13% power to extract all the Aβ species. The samples were then centrifuged (Ole Dich 157 MPRF Micro centrifuge) at 20000 G for 20 minutes at 4° C. After centrifugation 285 μL of the supernatant was pipetted into 600 μL microtubes tubes and neutralized with 15 μL of 1M Tris-HCL buffer.
WAKO 294-62501 Human/Rat Abeta amyloid (40) kit was used for all ELISA analyses. 30 μL plasma samples or 30 μL of the cortex supernatants generated as described above were placed in 600 μL microtubes tubes on wet ice. To this 30 μL of 8M Urea (AppliChem A1049, 9025) are added to generate a 2-fold dilution. Both plasma and cortex supernatants are incubated on ice for 30 min. Standard rows were prepared from the standard peptide stock provided in the kit and standard diluent containing 1.6M Urea (200 μL 8M Urea+800 μL of standard diluent) and 0.8M Urea (400 μL 8M Urea+3600 μL Standard diluent). A serial 2-fold dilution of Aβ40 from 100 pmol/ml to 0 pmol/L was prepared for the assay.
After incubation with urea, all samples were further diluted by addition of 5 times standard diluent from the Kit. This was done by adding 240 μL Standard Diluent to 60 μL sample/urea mixture, which was then mixed well. 100 μL of each diluted sample was pipetted into designated wells of the ELISA plate in duplicates. The plate was then covered and incubated overnight at 4° C. The following day, the ELISA kit was brought to room temperature before use. The incubated plate was washed 5 times with the 20× washing solution diluted in Milli Q water. 100 μL HRP-conjugate was applied to each well, and the plate was covered and incubates at 4° C. for 1 hr. The wash was repeated again for 5 times. 100 μL 3,3′,5,5′-Tetramethylbenzidine (TMB) solution was applied to each well and the plate was covered and incubated in the dark at room temperature for 30 minutes. […]
In general terms: ELISA stands for enzyme-linked immunosorbent assay.

Another data set concerns the target BACE1 (Homo sapiens (Human), UniProt P56817). Kind of data set: BACE1 efficacy assay (FRET-based, commercial BACE1 kit). The data set is classed as biochemical. To be noted: 10 μM test compound. The method, then:
The efficacy assay was performed as a FRET-based assay using a commercially available BACE1 kit (Life Technologies, P2985). 2 μl test compound at 10 μM (final concentration) and 15 μl BACE1 enzyme from the kit (final concentration 3 nM) were preincubated for 15 minutes at room temperature before addition of 15 μl of substrate from the kit (250 nM final concentration) and incubated for additional 90 minutes at room temperature. The assay plate was subsequently read in a Pherastar (Ex540/Em590). The enzyme activity observed in presence of test compound were normalized to the enzyme activity observed in presence of buffer and 10 μM (final concentration) of the high affinity BACE1 reference inhibitor (S)-6-[3-Chloro-5-(5-prop-1-ynyl-pyridin-3-yl)-thiophen-2-yl]-2-imino-3,6-dimethyl-tetra-hydropyrimidin-4-one, respectively. The efficacy of the test compounds was evaluated at 10 μM (final concentration) and defined as the percent inhibition of the enzyme activity using the equation % inhibition=100%−normalized enzyme activity in percent.

BACE1, sequence (P56817 46-501): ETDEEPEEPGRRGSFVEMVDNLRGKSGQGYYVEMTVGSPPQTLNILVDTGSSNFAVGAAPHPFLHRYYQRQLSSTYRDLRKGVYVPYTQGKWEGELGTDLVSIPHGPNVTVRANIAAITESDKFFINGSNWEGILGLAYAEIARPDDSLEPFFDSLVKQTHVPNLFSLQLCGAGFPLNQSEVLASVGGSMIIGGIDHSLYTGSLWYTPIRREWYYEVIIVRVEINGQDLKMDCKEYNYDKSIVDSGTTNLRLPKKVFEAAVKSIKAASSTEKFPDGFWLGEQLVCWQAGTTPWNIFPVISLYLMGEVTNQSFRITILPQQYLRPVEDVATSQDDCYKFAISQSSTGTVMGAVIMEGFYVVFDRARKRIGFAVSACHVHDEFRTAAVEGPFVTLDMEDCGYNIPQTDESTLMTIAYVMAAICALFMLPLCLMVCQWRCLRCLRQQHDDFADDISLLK

Usually efflux ratio stands for a quotient of directional permeabilities that is used to spot active efflux. Broadly, the inhibition is the drop in the measured response relative to a control, in per cent. As for `COc1cnc(C(=O)Nc2cc(F)c(F)c([C@@]3(CF)N=C(N)CCC3(F)F)c2)cn1` [Compound 11, (S)-N-(3-(6-amino-3,3-difluoro-2-(fluoromethyl)-2,3,4,5-tetrahydropyridin-2-yl)-4,5-difluorophenyl)-5-methoxypyrazine-2-carboxamide], in the data set on P-gp (MDR1), the efflux ratio at 60 min, 0.5 μM was determined as 0.77. In addition, the Aβ40 reduction was 43% in the data set with Aβ40 (rat brain, 10 mg/kg p.o.); 50% with Aβ40 (rat brain, 30 mg/kg p.o.); 31% with Aβ40 (rat plasma, 10 mg/kg p.o.); 37% in the data set with Aβ40 (rat plasma, 30 mg/kg p.o.). Moreover, at BACE1, the inhibition at 10 µM worked out at 103%.

These data come from patent publication US10058540B2, “2-amino-5,5-difluoro-6-(fluoromethyl)-6-phenyl-3,4,5,6-tetrahydropyridines as BACE1 inhibitors” (H. Lundbeck A/S, priority 2014, dated 2018).
